# According to patent publication US20150105252A1, “SUBSTITUTED PYRAZOLES AS HERBICIDES” (E I DU PONT DE NEMOURS AND COMPANY, priority 2013, published 2015):
# Legend:
# Surinam grass = test: Test E preemergence; assay type: in vivo, Brachiaria decumbens; conditions: 21 days, scale 0 to 100
# Excerpt: (§1) Seeds of plant species selected from bermudagrass (Cynodon dactylon), Surinam grass (Brachiaria decumbens), crabgrass, large (large crabgrass, Digitaria sanguinalis), crabgrass, naked (naked crabgrass, Digitaria nuda), foxtail, green (green foxtail, Setaria viridis), johnsongrass (Sorghum halepense), kochia (Kochia scoparia), morningglory (pitted morningglory, Ipomoea lacunosa), nutsedge, purple (purple nutsedge, Cyperus rotundus), ragweed (common ragweed, Ambrosia elation), mustard, black (black mustard, Brassica nigra), guineagrass (Panicum maximum), dallisgrass (Paspalum dilatatum), barnyardgrass (Echinochloa crus-galli), sandbur (southern sandbur, Cenchrus echinatus), sowthistle (common sowthistle, Sonchus oleraceous), ryegrass, Italian (Italian ryegrass, Lolium multiflorum), signalgrass (broadleaf signalgrass, Brachiaria platyphylla), dayflower, VA (Virginia (VA) dayflower, Commelina virginica), bluegrass (annual bluegrass, Poa annua), quackgrass (Elytrigia repens), mallow (common mallow, Malva sylvestris), buckwheat, wild (wild buckwheat, Polygonum convolvulus), leafy spurge (Euphorbia esula), common chickweed (Stellaria media), wild poinsettia (Euphorbia heterophylla), pigweed, palmer (palmer pigweed, Amaranthus palmeri), and pigweed (redroot pigweed, Amaranthus retroflexus) were planted into a blend of loam soil and sand and treated preemergence with test chemicals formulated in a non-phytotoxic solvent mixture which included a surfactant.
# (§2) Treated plants and controls were maintained in a greenhouse for 21 days, after which time all species were compared to controls and visually evaluated. Plant response ratings, summarized in Table E, are based on a scale of 0 to 100 where 0 is no effect and 100 is complete control. A dash (-) response means no test result.
# corn = test: Test F postemergence; assay type: in vivo, Zea mays; conditions: scale 0 to 100
# Summary of the method: (§3)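 Planting in silt loam, then preemergence treatment; postemergence treatment in parallel on 1- to 4-leaf seedlings (2–18 cm). Compound carried in a non-phytotoxic solvent mixture with surfactant. Greenhouse, 14–21 days; visual comparison with controls, scored 0 (none) to 100 (full control).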
# sandbur = test: Test E preemergence; assay type: in vivo, Cenchrus echinatus; conditions: 21 days, scale 0 to 100
# Excerpt: as §1, §2
# dallisgrass = test: Test E preemergence; assay type: in vivo, Paspalum dilatatum; conditions: 21 days, scale 0 to 100
# Excerpt: as §1, §2
# field bindweed = test: Test F postemergence; assay type: in vivo, Convolvulus arvensis; conditions: scale 0 to 100
# Summary of the method: as §3
# soybean = test: Test F postemergence; assay type: in vivo, Glycine max; conditions: scale 0 to 100
# Summary of the method: as §3
# wild poinsettia = test: Test F postemergence; assay type: in vivo, Euphorbia heterophylla; conditions: scale 0 to 100
# Summary of the method: as §3
# barnyardgrass = test: Test E preemergence; assay type: in vivo, Echinochloa crus-galli; conditions: 21 days, scale 0 to 100
# Excerpt: as §1, §2
# mustard, black = test: Test E preemergence; assay type: in vivo, Brassica nigra; conditions: 21 days, scale 0 to 100
# Excerpt: as §1, §2
smiles,measurement,setting,value
CCCc1cc(C(=O)NCC(F)(F)F)nn1Cc1ccnc(C(F)(F)F)c1 [Compound 105],"Plant response rating, Surinam Grass",Surinam grass; 16 g ai/ha,35
same,"Plant response rating, Surinam Grass",Surinam grass; 31 g ai/ha,40
same,"Plant response rating, Surinam Grass",Surinam grass; 62 g ai/ha,80
same,"Plant response rating, Surinam Grass",Surinam grass; 125 g ai/ha,95
same,"Plant response rating, Surinam Grass",Surinam grass; 250 g ai/ha,100
same,"Plant response rating, Corn","corn; Postemergence, 31 g ai/ha",10
same,"Plant response rating, Corn","corn; Postemergence, 125 g ai/ha",40
same,"Plant response rating, Corn","corn; Postemergence, 250 g ai/ha",80
same,"Plant response rating, Corn","corn; postemergence, 62 g ai/ha",30
same,"Plant response rating, Sandbur",sandbur; 16 g ai/ha,5
same,"Plant response rating, Sandbur",sandbur; 31 g ai/ha,50
same,"Plant response rating, Sandbur",sandbur; 62 g ai/ha,70
same,"Plant response rating, Sandbur",sandbur; 125 g ai/ha,95
same,"Plant response rating, Sandbur",sandbur; 250 g ai/ha,98
same,"Plant response rating, Dallisgrass",dallisgrass; 16 g ai/ha,20
same,"Plant response rating, Dallisgrass",dallisgrass; 31 g ai/ha,95
same,"Plant response rating, Dallisgrass",dallisgrass; 62 g ai/ha,100
same,"Plant response rating, Dallisgrass",dallisgrass; 125 g ai/ha,100
same,"Plant response rating, Dallisgrass",dallisgrass; 250 g ai/ha,100
same,"Plant response rating, Field Bindweed","field bindweed; Postemergence, 31 g ai/ha",70
same,"Plant response rating, Field Bindweed","field bindweed; Postemergence, 125 g ai/ha",70
same,"Plant response rating, Field Bindweed","field bindweed; Postemergence, 250 g ai/ha",80
same,"Plant response rating, Field Bindweed","field bindweed; postemergence, 62 g ai/ha",75
same,"Plant response rating, Field Bindweed","field bindweed; postemergence, 500 g ai/ha",90
same,"Plant response rating, Soybean","soybean; Postemergence, 31 g ai/ha",70
same,"Plant response rating, Soybean","soybean; Postemergence, 125 g ai/ha",90
same,"Plant response rating, Soybean","soybean; Postemergence, 250 g ai/ha",95
same,"Plant response rating, Soybean","soybean; postemergence, 62 g ai/ha",80
same,"Plant response rating, Soybean","soybean; postemergence, 500 g ai/ha",100
same,"Plant response rating, Wild Poinsettia","wild poinsettia; Postemergence, 31 g ai/ha",40
same,"Plant response rating, Wild Poinsettia","wild poinsettia; Postemergence, 125 g ai/ha",70
same,"Plant response rating, Wild Poinsettia","wild poinsettia; Postemergence, 250 g ai/ha",100
same,"Plant response rating, Wild Poinsettia","wild poinsettia; postemergence, 62 g ai/ha",50
same,"Plant response rating, Wild Poinsettia","wild poinsettia; postemergence, 500 g ai/ha",100
same,"Plant response rating, Barnyardgrass",barnyardgrass; 16 g ai/ha,35
same,"Plant response rating, Barnyardgrass",barnyardgrass; 31 g ai/ha,70
same,"Plant response rating, Barnyardgrass",barnyardgrass; 62 g ai/ha,85
same,"Plant response rating, Barnyardgrass",barnyardgrass; 125 g ai/ha,95
same,"Plant response rating, Barnyardgrass",barnyardgrass; 250 g ai/ha,98
same,"Plant response rating, Mustard, Black","mustard, black; 16 g ai/ha",100
same,"Plant response rating, Mustard, Black","mustard, black; 31 g ai/ha",100
same,"Plant response rating, Mustard, Black","mustard, black; 62 g ai/ha",100
same,"Plant response rating, Mustard, Black","mustard, black; 125 g ai/ha",100
same,"Plant response rating, Mustard, Black","mustard, black; 250 g ai/ha",100
